# Article PMC8623398, “Investigation of the Mechanisms of Cytotoxic Activity of 1,3-Disubstituted Thiourea Derivatives” (Pharmaceuticals, 2021)
# Where “and” joins values, the source holds several entries; their conditions need not be identical. Equal entries are not always repeated.
# Columns and labels:
# Format in all cases: cell-based, human
# [1] = test system: HaCaT cells; test: Trypan blue assay, HaCaT; details: 72 h, compound at IC50 concentration
# Protocol: (§1) In order to estimate the tumor and normal cell population density and their viability after treatment with compounds 1–3, 8, and 9, the trypan blue dye exclusion assay was performed. The live cell number of all cancerous cells incubated for 72 h with the studied thioureas was considerably lower in comparison with the controls (Table 2; Figure S1A). The highest reduction in cell amount was denoted for both colon SW480 and SW620 cells treated with the dichlorophenyl derivative 2, and it accounted for 93%. […] Similarly, a noticeable decline in both colon cancer cell populations was observed after treatment with the ortho-substituted compound 8. The number of live cells equaled 12% and 18%, respectively, as compared to controls. This thiourea also led to a reduction of PC3 cells of 38%, and leukemia K-562 cell lines of 27%. The number of SW620 and PC3 cells decreased by 72% and 63% in the presence of para-substituted compound 9. However, the reducing influence of this thiourea on the number of other cancerous cells was at the level of 21–32%. […] A significant effect on the other studied pathological cells was also noticed and accounted for 32–46%. Furthermore, the derivative 3 reduced the amount of live cancer cells by 32–59%, of which its decreasing impact on colon cancer cells was the greatest.
# (§2) The live cell count was assessed by the trypan blue exclusion dye assay using an automated cell counter (CountessTM Invitrogen, Waltham, MA, USA). Untreated cells were used as the control.
# [2] = Trypan blue assay, HaCaT; details: human, HaCaT cells, compound at IC50 concentration
# Protocol: as §1, §2
# [3] = test system: K-562 cells; test: Trypan blue assay, K-562; details: K-562, 72 h; for Cell Number × 10^5 / Viability (%): compound at IC50 concentration; for reduction in live cell number: IC50 concentration, vs control
# Protocol: as §1, §2
# [4] = test system: IL-6 level, PC3 cells; test: IL-6 level ELISA, PC3; details: PC3, 72 h; for IL-6 Concentration: compound at IC50 concentration, ELISA; for reduction of IL-6 level: IC50 concentration, vs control
# Protocol: (§3) Because of the low secretion of IL-6 by leukemic cells compared to solid tumors, and in addition to the lack of IL-6 receptors in K-562 cells, studies of the effect of derivatives 1–3, 8, and 9 on the inhibition of IL-6 release were carried out on primary and secondary solid tumor cells (SW480, SW620, and PC3). A remarkable inhibition of the IL-6 level was denoted for both colon cancer cell lines. Compound 2, identified as the strongest inhibitor, reduced the interleukin level by 54% (in SW480 cells) and 63% (SW620 cells). A significant effect was also observed in these cells for its structural isomer 3 (39% and 23% of inhibition, respectively). Additionally, compound 3 considerably affected the IL-6 level produced by PC3 cells, and reduced it by 33%. Similarly, the treatment with derivative 1 was effective for both colon cancer cells. In its presence, IL-6 release decreased by 28–36%, as compared to controls. For monosubstituted derivatives 8 and 9, the observed IL-6-reducing influence was weaker. They both inhibited IL-6 secretion in SW480 and SW620 cell lines by 25–32%. In contrast to compound 9, thiourea 8 additionally diminished the cytokine level in PC3 cells by 26%.
# (§4) The IL-6 concentration in all studied cancer cells and normal HaCaT cell lines was measured by an ELISA kit (Diaclon SAS Besancon CEDEX, Besançon, France). […] IL-6 in cell culture supernatant was measured using the enzyme-linked immunosorbent assay in accordance with the manufacturer’s protocol.
# [5] = test system: IL-6 level, HaCaT cells; test: IL-6 level ELISA, HaCaT; details: 72 h, compound at IC50 concentration
# Protocol: as §3, §4
# [6] = test system: K-562 cells; test: Annexin V-FITC/PI flow cytometry, K-562; details: K-562, 72 h, IC50 concentration
# Protocol: (§5) To estimate the mechanism of anticancer activity of the selected compounds 1–3, 8, and 9, their effect on both early and late apoptosis was evaluated by flow cytometry analysis. […] Additionally, visible late apoptosis-inducing properties in these cell lines were denoted for the compound 9 (47% ± 3.0%), which was twice as strong towards the colon tumor cells mentioned above. The apoptotic properties of analogs 3 and 8 in K-562 cells varied from 30% ± 1.6% to 33% ± 2.3%. […] Whereas the apoptosis-generating influence of derivatives 2 and 3 on normal keratinocytes was higher (29% and 23%), their selectivity measured by MTT methods is favorable. The obtained results are in agreement with the IC50 values assigned to pathological cancer cell lines. The cells were cultured and harvested under the conditions described in Section 3.2.1. […] The effect of these compounds on the process of early and late apoptosis and necrosis was determined as described previously by dual staining with Annexin V:FITC and propidium iodide, according to the manufacturer’s protocol (Becton Dickinson). The cells that were Annexin V:FITC positive and PI negative were identified as early apoptotic, and Annexin V:FITC and PI positive as late apoptotic or necrotic.
# [7] = test system: SW620 cells; test: Annexin V-FITC/PI flow cytometry, SW620; details: SW620, 72 h, IC50 concentration
# Protocol: as §5
# [8] = test system: IL-6 level, SW480 cells; test: IL-6 level ELISA, SW480; details: SW480, 72 h; for IL-6 Concentration: compound at IC50 concentration, ELISA; for reduction (inhibition) of IL-6 level: IC50 concentration, vs control
# Protocol: as §3, §4
Compound,Cell Number × 10^5 [1],viability at 72 h [2],Cell Number × 10^5 [3],Viability (%) [3],IL-6 Concentration [4],IL-6 Concentration [5],cells in late apoptosis [6],cells in late apoptosis [7],IL-6 Concentration [8],reduction in live cell number [3],reduction (inhibition) of IL-6 level [8],reduction of IL-6 level [4]
"FC(F)(F)c1cccc(NC(=S)Nc2ccc(Cl)cc2)c1 [Compound 9, 1-(4-chlorophenyl)-3-[3-(trifluoromethyl)phenyl]thiourea]",8.6 ± 0.12 × 10^5,98 ± 1.5%,3.5 ± 0.22 × 10^5,90 ± 2.40%,9.9 ± 0.03 pg/mL,9.0 ± 0.01 pg/mL,47% ± 3.0%,≤ 26%,5.5 ± 0.02 pg/mL,–,–,–
"FC(F)(F)c1cccc(NC(=S)Nc2ccc(Cl)c(Cl)c2)c1 [Compound 2, 1-(3,4-dichlorophenyl)-3-[3-(trifluoromethyl)phenyl]thiourea]",1.6 ± 0.31 × 10^5,84 ± 1.03%,1.0 ± 0.21 × 10^5,55 ± 1.03%,9.1 ± 0.04 pg/mL,9.1 ± 0.03 pg/mL,73% and 73% ± 2.0%,99% ± 0.5%,3.6 ± 0.02 pg/mL,66%,54%,–
"Fc1ccc(NC(=S)Nc2cccc(C(F)(F)F)c2)cc1Cl [Compound 1, 1-(3-chloro-4-fluorophenyl)-3-[3-(trifluoromethyl)phenyl]thiourea]",6.5 ± 0.15 × 10^5,97 ± 1.33%,1.8 ± 0.24 × 10^5,93 ± 2.05%,9.6 ± 0.02 pg/mL,8.7 ± 0.03 pg/mL,74% ± 3.8%,57% ± 1.2%,5.7 ± 0.01 pg/mL,–,–,–
"FC(F)(F)c1ccc(NC(=S)Nc2cccc(C(F)(F)F)c2)cc1 [Compound 8, 1-[3-(trifluoromethyl)phenyl]-3-[4-(trifluoromethyl)phenyl]thiourea]",4.9 ± 0.28 × 10^5,98 ± 1.02%,3.2 ± 0.14 × 10^5,88 ± 1.10%,8.1 ± 0.08 pg/mL,9.1 ± 0.06 pg/mL,–,≤ 26%,5.3 ± 0.01 pg/mL,27%,–,26%
"FC(F)(F)c1cccc(NC(S)=Nc2ccc(Cl)cc2Cl)c1 [Compound 3, 1-(2,4-dichlorophenyl)-3-[3-(trifluoromethyl)phenyl]thiourea]",7.8 ± 0.14 × 10^5,96 ± 3.01%,3.0 ± 0.27 × 10^5,85 ± 1.20%,7.3 ± 0.06 pg/mL,8.9 ± 0.01 pg/mL,–,≤ 26%,4.8 ± 0.04 pg/mL,–,39%,33%
